BindingDB's records for doi:10.1021/jacs.1c08060 (The University of Arizona, 2021)

Target: Replicase polyprotein 1ab (Severe acute respiratory syndrome coronavirus 2, UniProt P0DTD1)
Test: FRET-based enzymatic assay

| Compound | IC50 [nM] |
| --- | --- |
| CCCCC1CCC(OC(=O)N[C@@H](CC(C)C)C(=O)N[C@H](C=O)C[C@@H]2CCNC2=O)CC1 (stereo not given in full) [Advanced SARS-CoV-2 Inhibitor 6e] | 10 |
| C[C@H](NC(=O)[C@@H](c1cccnc1)N(C(=O)C(Br)Br)c1ccc(-c2ccccc2)cc1)c1ccc(Br)cc1 [Jun9-89-2R] | 80 |
| C[C@H](NC(=O)C(c1cccnc1)N(C(=O)CN=[N+]=[N-])c1ccc(-c2ccccc2)cc1)c1ccccc1 (stereo not given in full) [Jun9-61-1] | > 20000 |
| CCOC(=O)/C=C/C(=O)N(c1ccc(-c2ccccc2)cc1)C(C(=O)N[C@@H](C)c1ccccc1)c1cccnc1 (stereo not given in full) [Jun9-72-3] | > 20000 |
| C[C@H](NC(=O)C(c1cccnc1)N(C(=O)C(Cl)(Cl)Cl)c1ccc(-c2ccccc2)cc1)c1ccccc1 (stereo not given in full) [Jun9-72-4] | > 20000 |
| C[C@H](NC(=O)C(c1cccnc1)N(C(=O)C(C)(Cl)Cl)c1ccc(-c2ccccc2)cc1)c1ccccc1 (stereo not given in full) [Jun9-76-4] | > 20000 |
| C[C@H](NC(=O)C(c1cccnc1)N(C(=O)C(F)(F)Cl)c1ccc(-c2ccccc2)cc1)c1ccccc1 (stereo not given in full) [Jun9-77-2] | > 20000 |
| C[C@H](Cl)C(=O)N(c1ccc(-c2ccccc2)cc1)C(C(=O)N[C@@H](C)c1ccccc1)c1cccnc1 (stereo not given in full) [Jun9-77-1] | > 20000 |
| C=CC(=O)N(c1ccc(-c2ccccc2)cc1)C(C(=O)N[C@@H](C)c1ccccc1)c1cccnc1 (stereo not given in full) [Jun9-51-3] | > 20000 |
| C[C@H](NC(=O)[C@@H](c1cnccn1)N(C(=O)CCl)c1ccc(-c2ccccc2)cc1)c1ccccc1 [Jun9-57-3R] | 50 |
| C=CC(=O)N(c1ccc(-c2ccccc2)cc1)C(C(=O)NCc1ccccc1)c1cccnc1 (stereo not given) [Jun10-15-2] | > 20000 |
| O=C(NC1CC1)C(c1cccnc1)N(C(=O)CCl)c1ccc(-c2ccccc2)cc1 (stereo not given) [Jun9-57-2] | 220 |
| O=C(NC1CCCCC1)C(c1cccnc1)N(C(=O)CCl)c1ccc(-c2ccccc2)cc1 (stereo not given) [Jun9-55-2] | 330 |
| C[C@H](NC(=O)C(c1cnccn1)N(C(=O)CCl)c1ccc(-c2ccccc2)cc1)c1ccccc1 (stereo not given in full) [Jun9-59-1] | 120 |
| O=C(NC1CCCC1)C(c1cccnc1)N(C(=O)CCl)c1ccc(-c2ccccc2)cc1 (stereo not given) [Jun9-55-1] | 300 |
| C[C@H](NC(=O)C(c1cccnc1)N(C(=O)CF)c1ccc(-c2ccccc2)cc1)c1ccccc1 (stereo not given in full) [Jun9-61-4] | > 20000 |
| C[C@H](NC(=O)C(c1cccnc1)N(C(=O)/C=C/CN(C)C)c1ccc(-c2ccccc2)cc1)c1ccccc1 (stereo not given in full) [Jun10-31-4] | > 20000 |

Target: Procathepsin L (Homo sapiens, UniProt P07711)
Sequence (P07711 whole entry): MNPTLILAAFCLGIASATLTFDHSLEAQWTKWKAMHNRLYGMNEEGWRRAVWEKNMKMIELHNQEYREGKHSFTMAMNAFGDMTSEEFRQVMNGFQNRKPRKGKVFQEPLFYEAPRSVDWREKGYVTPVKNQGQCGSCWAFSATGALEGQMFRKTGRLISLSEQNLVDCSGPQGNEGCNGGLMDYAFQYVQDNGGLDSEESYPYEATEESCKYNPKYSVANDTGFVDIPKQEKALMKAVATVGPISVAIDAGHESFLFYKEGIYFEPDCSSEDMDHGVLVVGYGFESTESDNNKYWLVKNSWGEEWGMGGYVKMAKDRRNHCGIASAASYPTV
Test: FRET-based enzymatic assay

| Compound | IC50 [nM] |
| --- | --- |
| CC(C)C[C@H](NC(=O)OCc1ccccc1)C(=O)N[C@@H](CC1CCNC1=O)C(O)S(=O)(=O)O (stereo not given in full) [GC376] | 0.99 |
| CC(OC(C)(C)C)[C@H](NC(=O)OCc1ccccc1)C(=O)N[C@@H](CC1CCCCC1)C(=O)N[C@H](C=O)C[C@@H]1CCNC1=O (stereo not given in full) [jm5b01461, Compound 45] | 1.2 |
| COc1cccc2[nH]c(C(=O)N[C@@H](CC(C)C)C(=O)N[C@@H](C[C@@H]3CCNC3=O)C(=O)CO)cc12 [WO2005113580-Ex-02] | 146 |
